Data from paper PMC3139011 (Archives of biochemistry and biophysics, 2011).

Tests used:
hDUOX1_1–593 = target: T1, hDUOX1_1–593 (Homo sapiens, UniProt Q9NRD9); assay: heme titration, difference absorbance spectroscopy; assay type: binding
T1 sequence (Q9NRD9 1-593): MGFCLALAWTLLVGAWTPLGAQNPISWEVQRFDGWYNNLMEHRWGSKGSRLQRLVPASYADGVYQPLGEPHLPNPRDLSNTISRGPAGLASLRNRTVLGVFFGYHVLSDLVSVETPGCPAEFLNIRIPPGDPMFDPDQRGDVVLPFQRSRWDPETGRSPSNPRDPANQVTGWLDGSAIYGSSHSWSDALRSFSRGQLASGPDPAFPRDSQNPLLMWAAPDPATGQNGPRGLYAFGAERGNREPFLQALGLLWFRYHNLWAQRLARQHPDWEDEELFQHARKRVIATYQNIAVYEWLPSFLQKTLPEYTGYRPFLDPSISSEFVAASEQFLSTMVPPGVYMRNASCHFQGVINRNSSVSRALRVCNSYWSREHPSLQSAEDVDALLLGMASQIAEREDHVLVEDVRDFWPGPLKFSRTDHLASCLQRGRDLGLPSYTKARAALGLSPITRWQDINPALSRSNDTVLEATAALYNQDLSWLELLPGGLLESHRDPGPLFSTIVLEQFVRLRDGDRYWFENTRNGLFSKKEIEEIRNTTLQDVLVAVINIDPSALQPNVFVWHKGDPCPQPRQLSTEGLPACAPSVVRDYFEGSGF

hDUOX2_1–599 = target: T2, hDUOX2_1–599 (Homo sapiens, UniProt Q9NRD8); assay: heme titration, difference absorbance spectroscopy; assay type: binding
T2 sequence (Q9NRD8 1-599): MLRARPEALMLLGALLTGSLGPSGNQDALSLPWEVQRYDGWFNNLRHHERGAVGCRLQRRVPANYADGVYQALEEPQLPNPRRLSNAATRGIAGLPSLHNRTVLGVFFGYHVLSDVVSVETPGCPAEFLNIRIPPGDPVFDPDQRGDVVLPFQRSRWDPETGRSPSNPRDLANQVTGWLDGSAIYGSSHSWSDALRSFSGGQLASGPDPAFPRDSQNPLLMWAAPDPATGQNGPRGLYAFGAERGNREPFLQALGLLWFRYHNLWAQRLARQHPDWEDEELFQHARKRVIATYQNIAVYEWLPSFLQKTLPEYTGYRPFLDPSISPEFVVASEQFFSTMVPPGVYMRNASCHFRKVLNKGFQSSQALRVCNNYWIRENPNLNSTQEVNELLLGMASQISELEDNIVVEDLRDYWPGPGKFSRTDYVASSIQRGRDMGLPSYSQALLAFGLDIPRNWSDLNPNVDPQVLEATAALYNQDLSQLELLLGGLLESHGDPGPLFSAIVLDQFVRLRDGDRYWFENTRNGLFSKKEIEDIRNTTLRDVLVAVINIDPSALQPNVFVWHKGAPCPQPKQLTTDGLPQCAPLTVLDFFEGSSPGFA

## C=CC1=C(C)C2=Cc3c(C=C)c(C)c4[n]3[Fe]([Cl])[n]3c(c(C)c(CCC(=O)O)c3=CC3=NC(=C4)C(C)=C3CCC(=O)O)=CC1=N2 [heme]
hDUOX1_1–593
  Kd: 2700 ± 100 nM
hDUOX2_1–599
  Kd: 2400 ± 400 nM
